From patent US20240293423A1, “STAT DEGRADERS AND USES THEREOF” (Kymera Therapeutics, Inc., priority 2020, published 2024) come the findings set out here.

By DC50 is commonly meant the concentration at which degradation of the target reaches its halfway point.

Bounds are passed on as bounds.

T1 sequence (P40763 whole entry): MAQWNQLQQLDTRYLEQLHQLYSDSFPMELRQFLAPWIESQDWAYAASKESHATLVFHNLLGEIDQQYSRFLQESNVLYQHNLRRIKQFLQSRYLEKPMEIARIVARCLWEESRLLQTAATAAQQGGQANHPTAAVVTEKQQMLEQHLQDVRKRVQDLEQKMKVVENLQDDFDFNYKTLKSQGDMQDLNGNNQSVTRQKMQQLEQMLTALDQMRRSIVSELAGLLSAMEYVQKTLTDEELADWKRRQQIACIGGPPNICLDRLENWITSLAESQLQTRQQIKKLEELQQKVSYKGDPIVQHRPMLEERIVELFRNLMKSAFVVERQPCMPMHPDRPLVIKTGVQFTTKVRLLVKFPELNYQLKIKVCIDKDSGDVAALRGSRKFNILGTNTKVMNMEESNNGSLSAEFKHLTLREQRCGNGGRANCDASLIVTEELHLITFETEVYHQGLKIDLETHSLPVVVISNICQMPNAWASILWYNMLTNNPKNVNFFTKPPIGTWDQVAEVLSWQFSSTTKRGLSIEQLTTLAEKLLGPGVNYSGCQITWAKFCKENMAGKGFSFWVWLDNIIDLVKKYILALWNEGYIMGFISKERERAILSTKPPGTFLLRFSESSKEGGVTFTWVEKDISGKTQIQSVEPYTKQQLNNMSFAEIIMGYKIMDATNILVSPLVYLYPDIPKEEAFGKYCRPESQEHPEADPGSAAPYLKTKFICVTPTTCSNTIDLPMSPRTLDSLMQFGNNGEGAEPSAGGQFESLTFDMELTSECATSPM

The assay addresses T1, STAT3 (Homo sapiens, UniProt P40763).
T1 construct: expressed in transfected cells; host or cells: A549
Nature of the assay: STAT3 HiBiT degradation assay in transfected A549 cells. In kind it is cell-based. The settings on record: 24 h compound incubation, Nano-Glo HiBiT lytic detection, read-out: Cell: STAT3 HiBit A549 degradation 24 h GMean External Abs-DC50. As for the experimental part: Compound preparation and Cell seeding: The transfected A549 cells were harvested from dish into cell culture medium and cell numbers counted. Cells were diluted with culture medium to the desired density and 30 μL of cell suspension (about 2000 cells/well) were added into each well of a 384-well cell culture plate as designated and transferred into 37° C. 5% CO2 incubator for 24 h. Compounds were dissolved to 10 mM stock solution and 12 μL of the stock solution was transferred to a 384 LDV-plate. 3 fold, 10-point dilution was performed by transferring 4 μL compound into 8 μL DMSO using a TECAN (EVO200) liquid handler. 30 μL of diluted compound from compound source plate was transferred into the cell plate as designated by using Echo550 and transferred into 37° C. 5% CO2 incubator for 24 h.
Detection: Plates were removed from incubators and equilibrated at room temperature for 15 minutes. Nano-Glo Hibit Lytic Detection reagent (Promega Cat #N3040) was thawed and equilibrated to room temperature before the experiment. 30 μL of Nano-Glo Hibit Lytic Detection reagent was added into each well to be detected. The plates were held at room temperature for 10 min followed by reading on EnSpire.
Data analysis: The remaining activity was calculated following the formula: Remaining Activity (%)=100%×(Lumsample−LumNC)/(LumPC−LumNC). Calculate the IC50 by fitting the curve using Xlfit (v5.3.1.3), equation 201: fit=(A+((B−A)/(1+((x/C)^D)))); A: Botton; B: Top; C: IC50; and D: Slope.
The letter codes for STAT3 DC50 include: A (<0.05 μM), B (0.05-0.2 μM), C (0.2-1.0 μM), and D (>1.0 μM).
Background: With HiBiT, luminescence reflects the tagged protein that the partner subunit can reach.
On to `COC(=O)N1CC[C@H]2CC[C@@H](C(=O)N[C@@H](CCC(N)=O)C(=O)N[C@@H](Cc3ccc(F)c(F)c3)C(=O)N3CCC(CCC#Cc4ccc5c(c4)n(C)c(=O)n5C4CCC(=O)NC4=O)CC3)N2C(=O)[C@@H](NC(=O)c2cc3cc(C(F)(F)P(=O)(O)O)ccc3s2)C1` (stereo partly drawn) [Compound I-1], for which the DC50 is < 50 nM.
The result for `COC(=O)N1CC[C@H]2CC[C@@H](C(=O)N[C@@H](CCC(N)=O)C(=O)N[C@@H](Cc3ccc(F)c(F)c3)C(=O)N3CCC(CCCc4ccc5c(c4)n(C)c(=O)n5C4CCC(=O)NC4=O)CC3)N2C(=O)[C@@H](NC(=O)c2cc3cc(C(F)(F)P(=O)(O)O)ccc3s2)C1` (stereo partly drawn) [Compound I-2, (2-{[(5S,8S,10aR)-8-{[(1S)-3-carbamoyl-1-{[(2S)-3-(3,4-difluorophenyl)-1-(4-{3-[1-(2,6-dioxopiperidin-3-yl)-3-methyl-2-oxo-1,3-benzodiazol-5-yl]propyl}piperidin-1-yl)-1-oxopropan-2-yl]carbamoyl}propyl]carbamoyl}-3-(methoxycarbonyl)-6-oxo-octahydropyrrolo[1,2-a][1,5]diazocin-5-yl]carbamoyl}-1-benzothiophen-5-yl)difluoromethylphosphonic acid] reads < 50 nM; that for `COC(=O)N1CC[C@H]2CC[C@@H](C(=O)N[C@@H](CCC(N)=O)C(=O)N[C@@H](Cc3ccc(F)c(F)c3)C(=O)N3CCC(CCCc4cccc5c4n(C)c(=O)n5C4CCC(=O)NC4=O)CC3)N2C(=O)[C@@H](NC(=O)c2cc3cc(C(F)(F)P(=O)(O)O)ccc3s2)C1` (stereo partly drawn) [Compound I-3], < 50 nM; that for `COC(=O)N1CC[C@H]2CC[C@@H](C(=O)N[C@@H](CCC(N)=O)C(=O)N[C@@H](Cc3ccc(F)c(F)c3)C(=O)N3CCC(CCC#Cc4ccc5c(c4)n(C)c(=O)n5C4CCC(=O)NC4=O)CC3)N2C(=O)[C@@H](NC(=O)c2cc3cc(C(=O)P(=O)(O)O)ccc3[nH]2)C1` (stereo partly drawn) [Compound I-4], 200 to 1000 nM.
Turning to `COC(=O)N1CC[C@H]2CC[C@@H](C(=O)N[C@@H](CCC(N)=O)C(=O)N[C@@H](Cc3ccc(F)c(F)c3)C(=O)N3CCC(CCCc4ccc5c(c4)n(C)c(=O)n5C4CCC(=O)NC4=O)CC3)N2C(=O)[C@@H](NC(=O)c2cc3cc(C(=O)P(=O)(O)O)ccc3[nH]2)C1` (stereo partly drawn) [Compound I-5, 2-[[(5S,8S,10aR)-8-[[(1S)-3-carbamoyl-1-[[(2S)-3-(3,4-difluorophenyl)-1-(4-[3-[1-(2,6-dioxopiperidin-3-yl)-3-methyl-2-oxo-1,3-benzodiazol-5-yl]propyl]piperidin-1-yl)-1-oxopropan-2-yl]carbamoyl]propyl]carbamoyl]-3-(methoxycarbonyl)-6-oxo-octahydropyrrolo[1,2-a][1,5]diazocin-5-yl]carbamoyl]-1H-indole-5-carbonylphosphonic acid], the 50% degradation concentration (DC50) lay within 50 to 200 nM.
As to `COC(=O)N1CC[C@H]2CC[C@@H](C(=O)N[C@@H](CCC(N)=O)C(=O)N[C@@H](Cc3ccc(F)c(F)c3)C(=O)N3CCC(CCCc4cccc5c4n(C)c(=O)n5C4CCC(=O)NC4=O)CC3)N2C(=O)[C@@H](NC(=O)c2cc3cc(C(=O)P(=O)(O)O)ccc3[nH]2)C1` (stereo partly drawn) [Compound I-6], the DC50 lay in the range of 200 to 1000 nM.
The result for `CC(=O)N1CC[C@H]2CC[C@@H](C(=O)N[C@@H](CCC(N)=O)C(=O)N[C@@H](Cc3ccc(F)c(F)c3)C(=O)N3CCC(CCC#Cc4ccc5c(c4)n(C)c(=O)n5C4CCC(=O)NC4=O)CC3)N2C(=O)[C@@H](NC(=O)c2cc3cc(C(=O)P(=O)(O)O)ccc3[nH]2)C1` (stereo partly drawn) [Compound I-7] reads 200 to 1000 nM; that for `CC(=O)N1CC[C@H]2CC[C@@H](C(=O)N[C@@H](CCC(N)=O)C(=O)N[C@@H](Cc3ccc(F)c(F)c3)C(=O)N3CCC(CCCc4ccc5c(c4)n(C)c(=O)n5C4CCC(=O)NC4=O)CC3)N2C(=O)[C@@H](NC(=O)c2cc3cc(C(=O)P(=O)(O)O)ccc3[nH]2)C1` (stereo partly drawn) [Compound I-8], > 1000 nM; that for `CC(=O)N1CC[C@H]2CC[C@@H](C(=O)N[C@@H](CCC(N)=O)C(=O)N[C@@H](Cc3ccc(F)c(F)c3)C(=O)N3CCC(CCCc4cccc5c4n(C)c(=O)n5C4CCC(=O)NC4=O)CC3)N2C(=O)[C@@H](NC(=O)c2cc3cc(C(=O)P(=O)(O)O)ccc3[nH]2)C1` (stereo partly drawn) [Compound I-9], 200 to 1000 nM.
